Assay results from patent US4863925A, “Cyclohexanedione derivative for hepatic disorders and a process for producing the same” (Nihon Nohyaku Co., Ltd., priority 1986, dated 1989).

Assays:
[1] = acute oral toxicity (LD50); settings: in vivo, male rat
Experimental: For example, LD50 value (acute oral toxicity to male rat) of the compound No. 55 is more than 1,000 mg/kg.

[2] = test system: hepatic disorder caused by carbon tetrachloride; test: Effect of suppressing hepatic disorder caused by carbon tetrachloride (Test Example 1); type: in vivo, mice (dd-strain, male); parameters: key to Liver injury index: 0 = healthy, 2 = slight, 4 = evident injury, 6 = serious injury; settings: 30 mg/kg p.o., 6 h before CCl4 0.05 ml/kg p.o., 24 h after CCl4, mean of five mice; for Liver injury index: 0 healthy, 2 slightly affected, 4 evidently observed injury, 6 serious injury; for P-GPT (plasma glutamic pyruvic transaminase activity): Reitman-Frankel, 2,000 or higher calculated as 2,000
Experimental: Effect of suppressing hepatic disorder caused by carbon tetrachloride. […] The animals were sacrificed 24 hours after the administration of carbon tetrachloride, and the extent of liver injury was examined. On the other hand, blood was collected from the animal at the time of the sacrifice, and centrifuged to obtain plasma. The plasma glutamic pyruvic transminase (GPT) activity was determined according to the method of Reitman-Frankel. The activity was expressed in terms of Karmen Units (K.U.). The conditions of the liver were expressed in terms of liver injury index as follows. |Liver injury index | Condition of liver |0 Healthy liver |2 Slightly affected |4 Evidently observed injury |6 Serious injury Mice were used in groups of five of test were represented by the mean value. When the GPT activity was 2,000 units or higher, or further determination was made, the activity was calculated as 2,000 units for reasons of convenience.

COc1ccc(C2CC(=O)C(=C3SC4C(S3)N(C)CCN4C)C(=O)C2)cc1 (stereo not drawn) [compound 55]
LD50 [1]: > 1000 mg/kg
Liver injury index [2]: 0.3
P-GPT (plasma glutamic pyruvic transaminase activity) [2]: 107 K.U.

CN1CCN(C)C2SC(=C3C(=O)CC(c4ccccc4Cl)CC3=O)SC21 (stereo not drawn) [compound 32]
Liver injury index [2]: 0.3
P-GPT (plasma glutamic pyruvic transaminase activity) [2]: 22 K.U.

COc1ccc(C2CC(=O)C(=C3SC4NCCNC4(C)S3)C(=O)C2)cc1 (stereo not drawn) [compound 92]
Liver injury index [2]: 0.4
P-GPT (plasma glutamic pyruvic transaminase activity) [2]: 15 K.U.

CCCN1CCN(CCC)C2SC(=C3C(=O)CC(c4ccc(OC)cc4)CC3=O)SC21 (stereo not drawn) [compound 57]
Liver injury index [2]: 0.2
P-GPT (plasma glutamic pyruvic transaminase activity) [2]: 142 K.U.

Cc1cccc(C2CC(=O)C(=C3SC4C(S3)N(C)CCN4C)C(=O)C2)c1 (stereo not drawn) [compound 42]
Liver injury index [2]: 0
P-GPT (plasma glutamic pyruvic transaminase activity) [2]: 14 K.U.

CCC1CCC(=O)C(=C2SC3C(S2)N(C)CCN3C)C1=O (stereo not drawn) [compound 25]
Liver injury index [2]: 0.8
P-GPT (plasma glutamic pyruvic transaminase activity) [2]: 15 K.U.

CN1CCNC2SC(=C3C(=O)CC(c4ccccc4Cl)CC3=O)SC21 (stereo not drawn) [compound 121]
Liver injury index [2]: 0
P-GPT (plasma glutamic pyruvic transaminase activity) [2]: 20 K.U.

COc1ccccc1C1CC(=O)C(=C2SC3C(S2)N(C)CCN3C)C(=O)C1 (stereo not drawn) [compound 51]
Liver injury index [2]: 0
P-GPT (plasma glutamic pyruvic transaminase activity) [2]: 81 K.U.

CN1CCN(C)C2(C)SC(=C3C(=O)CC(c4cccs4)CC3=O)SC12 (stereo not drawn) [compound 105]
Liver injury index [2]: 0
P-GPT (plasma glutamic pyruvic transaminase activity) [2]: 15 K.U.

CCOC(=O)C1C(=O)C(=C2SC3C(S2)N(C)CCN3C)C(=O)CC1c1ccc(C)cc1 (stereo not drawn) [compound 102]
Liver injury index [2]: 1.5
P-GPT (plasma glutamic pyruvic transaminase activity) [2]: 319 K.U.

CN1CCN(C)C2(C)SC(=C3C(=O)CCCC3=O)SC12 (stereo not drawn) [compound 11]
Liver injury index [2]: 0.5
P-GPT (plasma glutamic pyruvic transaminase activity) [2]: 16 K.U.

CC1CNC2SC(=C3C(=O)CC(C)(C)CC3=O)SC2N1 (stereo not drawn) [compound 14, 2-[3-methyl-2,5-diaza-7,9-dithiabicyclo-(4.3.0)-nonane-8-ylidene]-5,5-dimethyl-1,3-cyclohexanedione]
Liver injury index [2]: 0.4
P-GPT (plasma glutamic pyruvic transaminase activity) [2]: 18 K.U.

CCc1ccc(C2CC(=O)C(=C3SC4C(S3)N(C)CCN4C)C(=O)C2)cc1 (stereo not drawn) [compound 48]
Liver injury index [2]: 0.3
P-GPT (plasma glutamic pyruvic transaminase activity) [2]: 18 K.U.
